pIC50, pKi: −log10 of the molar value. The source made the active and inactive calls. No cut-off for these calls is given here.
Legend:
Acetylcholinesterase [1] = molecular target: T1, Acetylcholinesterase (Electrophorus electricus, UniProt O42275)
Description: Inhibition of electric eel AChE using acetylthiocholine chloride as substrate preincubated for 15 mins followed by substrate addition measured every 1 min by Ellman's method

Cholinesterase = Cholinesterase (Equus caballus, UniProt P81908)
Description: Inhibition of equine serum BuChE using butyrylthiocholine chloride as substrate preincubated for 15 mins followed by substrate addition measured every 1 min by Ellman's method

Acetylcholinesterase [2] = molecular target: Acetylcholinesterase (Homo sapiens, UniProt P22303); experiment: Inhibition of human erythrocyte AChE using acetylthiocholine chloride as substrate preincubated for 15 mins followed by substrate addition measured every 1 min by Ellman's method
Sequence of Acetylcholinesterase (Homo sapiens, UniProt P22303) (P22303 whole entry): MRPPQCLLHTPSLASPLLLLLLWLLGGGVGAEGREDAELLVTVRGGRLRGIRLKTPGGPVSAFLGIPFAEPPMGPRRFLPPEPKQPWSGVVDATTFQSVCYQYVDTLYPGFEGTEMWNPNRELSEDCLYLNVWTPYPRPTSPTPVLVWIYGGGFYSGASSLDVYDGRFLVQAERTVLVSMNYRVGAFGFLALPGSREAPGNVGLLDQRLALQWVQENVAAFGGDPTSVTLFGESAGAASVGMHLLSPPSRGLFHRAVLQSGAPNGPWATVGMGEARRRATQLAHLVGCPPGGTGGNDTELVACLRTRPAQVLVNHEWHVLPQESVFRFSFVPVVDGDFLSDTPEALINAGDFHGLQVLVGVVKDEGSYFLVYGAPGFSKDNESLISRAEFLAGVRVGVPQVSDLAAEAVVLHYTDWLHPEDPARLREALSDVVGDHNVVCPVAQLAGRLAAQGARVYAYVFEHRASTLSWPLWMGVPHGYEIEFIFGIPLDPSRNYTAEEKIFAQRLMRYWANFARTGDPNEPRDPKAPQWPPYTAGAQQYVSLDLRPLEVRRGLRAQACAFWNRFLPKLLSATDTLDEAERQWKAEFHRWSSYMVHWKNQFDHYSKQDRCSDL

in vitro = conditions: PAMPA
Description: Effective permeability of the compound at 5 mg/mL after 10 hrs by PAMPA

[3] = molecular target: Acetylcholinesterase (Electrophorus electricus) (UniProt O42275); experiment: Mixed-type inhibition of electric eel AChE using acetylthiocholine chloride as substrate preincubated for 15 mins followed by substrate addition by Lineweaver-Burk plot analysis
Sequence of Acetylcholinesterase (Electrophorus electricus) (O42275 24-633 limits assumed): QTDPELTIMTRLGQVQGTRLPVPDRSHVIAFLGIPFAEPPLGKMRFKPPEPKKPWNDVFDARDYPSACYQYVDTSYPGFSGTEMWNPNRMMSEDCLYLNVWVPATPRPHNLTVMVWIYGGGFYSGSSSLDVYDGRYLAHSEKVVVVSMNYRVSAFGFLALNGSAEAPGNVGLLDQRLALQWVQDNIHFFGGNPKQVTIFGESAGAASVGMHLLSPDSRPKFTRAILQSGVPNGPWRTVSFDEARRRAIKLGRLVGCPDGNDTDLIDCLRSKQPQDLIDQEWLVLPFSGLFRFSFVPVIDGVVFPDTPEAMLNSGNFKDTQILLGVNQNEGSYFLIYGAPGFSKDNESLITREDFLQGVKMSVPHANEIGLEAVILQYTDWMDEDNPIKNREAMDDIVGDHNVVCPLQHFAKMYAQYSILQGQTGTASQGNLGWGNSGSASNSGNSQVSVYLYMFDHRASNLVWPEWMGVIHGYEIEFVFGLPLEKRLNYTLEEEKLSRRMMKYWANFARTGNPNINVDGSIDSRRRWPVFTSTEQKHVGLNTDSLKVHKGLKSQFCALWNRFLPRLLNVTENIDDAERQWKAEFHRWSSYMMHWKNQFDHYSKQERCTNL

Mus musculus [4] = experiment: Acute toxicity in KM mouse assessed as effect on food consumption up to 2000 mg/kg, po after 4 hrs; format: organism-based; parameters: dose 2000 mg/kg, route oral; conditions: in vivo
Mus musculus [5] = experiment: Acute toxicity in KM mouse assessed as effect on body weight up to 2000 mg/kg, po after 4 hrs; format: organism-based; parameters: dose 2000 mg/kg, route oral; conditions: in vivo
Mus musculus [6] = experiment: Acute toxicity in KM mouse assessed as effect on water consumption up to 2000 mg/kg, po after 4 hrs; format: organism-based; parameters: dose 2000 mg/kg, route oral; conditions: in vivo
Acetylcholinesterase [7] = molecular target: T1, Acetylcholinesterase; experiment: […] inhibition of electric eel AChE using acetylthiocholine chloride as substrate preincubated for 15 mins followed by substrate addition by Lineweaver-Burk plot analysis
[8] = Acute toxicity in po dosed KM mouse measured for 14 days; format: organism-based; conditions: in vivo
Mus musculus [9] = experiment: Acute toxicity in KM mouse assessed as mortality up to 2000 mg/kg, po after 24 hrs; format: organism-based; parameters: dose 2000 mg/kg, route oral; conditions: in vivo

Sequence of Cholinesterase (P81908 whole entry): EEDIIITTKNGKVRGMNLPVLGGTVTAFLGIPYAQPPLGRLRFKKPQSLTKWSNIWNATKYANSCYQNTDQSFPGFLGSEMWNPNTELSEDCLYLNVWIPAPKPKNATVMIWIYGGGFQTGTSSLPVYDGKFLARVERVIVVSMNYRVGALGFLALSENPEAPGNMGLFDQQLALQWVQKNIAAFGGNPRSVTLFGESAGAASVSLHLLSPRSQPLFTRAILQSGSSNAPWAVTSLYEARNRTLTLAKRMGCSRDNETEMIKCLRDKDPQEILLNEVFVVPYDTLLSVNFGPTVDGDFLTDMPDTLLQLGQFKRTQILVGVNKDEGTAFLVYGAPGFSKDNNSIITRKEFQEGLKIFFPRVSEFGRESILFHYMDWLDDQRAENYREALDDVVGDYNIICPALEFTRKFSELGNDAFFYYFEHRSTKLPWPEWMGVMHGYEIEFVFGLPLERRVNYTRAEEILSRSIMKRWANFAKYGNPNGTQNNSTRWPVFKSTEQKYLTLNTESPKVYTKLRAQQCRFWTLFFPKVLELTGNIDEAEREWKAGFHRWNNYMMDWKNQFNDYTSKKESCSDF
T1 sequence (O42275 whole entry): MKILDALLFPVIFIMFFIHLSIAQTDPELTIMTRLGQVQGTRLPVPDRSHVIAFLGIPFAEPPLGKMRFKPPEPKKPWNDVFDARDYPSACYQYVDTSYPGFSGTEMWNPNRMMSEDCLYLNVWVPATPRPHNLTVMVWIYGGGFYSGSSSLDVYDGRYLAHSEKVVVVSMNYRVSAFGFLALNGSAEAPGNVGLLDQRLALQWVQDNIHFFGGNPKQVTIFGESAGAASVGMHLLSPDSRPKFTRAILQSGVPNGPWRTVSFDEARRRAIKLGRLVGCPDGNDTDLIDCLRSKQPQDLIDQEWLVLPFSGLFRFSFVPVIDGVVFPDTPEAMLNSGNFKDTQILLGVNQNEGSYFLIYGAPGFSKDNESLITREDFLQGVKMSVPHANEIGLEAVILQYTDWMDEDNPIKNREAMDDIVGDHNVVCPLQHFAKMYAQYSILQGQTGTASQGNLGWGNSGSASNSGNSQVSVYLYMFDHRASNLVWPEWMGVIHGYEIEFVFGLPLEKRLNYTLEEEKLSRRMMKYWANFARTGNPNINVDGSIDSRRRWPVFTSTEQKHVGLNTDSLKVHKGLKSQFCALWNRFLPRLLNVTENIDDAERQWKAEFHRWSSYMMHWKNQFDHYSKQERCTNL

Compound	pIC50 (Acetylcholinesterase [1])	pIC50 (Cholinesterase)	other results
O=c1c2ccc(F)cc2[se]n1C1CCN(Cc2ccccc2)CC1	4.71	4.98	
O=c1c2ccccc2[se]n1C1CCN(Cc2ccccc2)CC1	4.75	5.08	
O=c1c2ccc(F)cc2[se]n1CCC1CCN(Cc2ccccc2)CC1	6.65	5.44	
COc1cc2[se]n(CCCCC3CCN(Cc4ccccc4)CC3)c(=O)c2cc1OC	7.42	6.29	pIC50 (Acetylcholinesterase [2]): 6.99; Papp at 10 h, 5 mg/mL (in vitro): 15.8 ×10⁻⁶ cm/s
O=c1c2ccc(Cl)cc2[se]n1CC1CCN(Cc2ccccc2)CC1	5.21	5.64	
O=c1c2ccccc2[se]n1-c1ccccc1 [EBSELEN]	4.39	4.98	
O=c1c2ccc(Cl)cc2[se]n1C1CCN(Cc2ccccc2)CC1	5.00	4.67	
COc1cc2[se]n(CCC3CCN(Cc4ccccc4)CC3)c(=O)c2cc1OC	7.38	5.80	pIC50 (Acetylcholinesterase [2]): 7.01; inhibition [3]: Active; Activity (Mus musculus [4]): Non-toxic; Activity (Mus musculus [5]): Non-toxic; Activity (Mus musculus [6]): Non-toxic; pKi (Acetylcholinesterase [7]): 7.77; Papp at 10 h, 5 mg/mL (in vitro): 8.6 ×10⁻⁶ cm/s; MTD at 336 h [8]: 2000 mg/kg; Activity (Mus musculus [9]): Non-toxic
COc1cc2[se]n(C3CCN(Cc4ccccc4)CC3)c(=O)c2cc1OC	4.93	5.02	
O=c1c2ccccc2[se]n1CCC1CCN(Cc2ccccc2)CC1	6.42	5.67	
O=c1c2ccc(Cl)cc2[se]n1CCC1CCN(Cc2ccccc2)CC1	6.69	5.63	
O=c1c2ccc(F)cc2[se]n1CC1CCN(Cc2ccccc2)CC1	4.91	5.46	
O=c1c2ccccc2[se]n1CC1CCN(Cc2ccccc2)CC1	4.70	5.44	
COc1cc2[se]n(CCCC3CCN(Cc4ccccc4)CC3)c(=O)c2cc1OC	7.14	5.82	pIC50 (Acetylcholinesterase [2]): 6.64; Papp at 10 h, 5 mg/mL (in vitro): 10.3 ×10⁻⁶ cm/s
COc1cc2[se]n(CC3CCN(Cc4ccccc4)CC3)c(=O)c2cc1OC	5.37	5.41	
COc1cc2c(cc1OC)[Se](=O)N(CCC1CCN(Cc3ccccc3)CC1)C2=O (stereo unspecified)	7.37	5.87	pIC50 (Acetylcholinesterase [2]): 6.79

Source: ChEMBL document CHEMBL3085626, “Synthesis and evaluation of multi-target-directed ligands against Alzheimer's disease based on the fusion of donepezil and ebselen” (J Med Chem, 2013)
